Test results: ChEMBL document CHEMBL2034967, “Lipophilic amines as potent inhibitors of N-acylethanolamine-hydrolyzing acid amidase” (Bioorg Med Chem, 2012)
Active and inactive are the calls of the source. The calls are words filed in the database; no cut-off is given here.

What was measured:
[1] = target: T1, N-acylethanolamine-hydrolyzing acid amidase (Rattus norvegicus) (UniProt Q5KTC7); assay: Inhibition of Wistar/ST rat lung NAAA assessed as residual activity for conversion of [14C]PEA to [14C]palmitic acid at 100 uM after 20 mins relative to control
T1 sequence (whole entry): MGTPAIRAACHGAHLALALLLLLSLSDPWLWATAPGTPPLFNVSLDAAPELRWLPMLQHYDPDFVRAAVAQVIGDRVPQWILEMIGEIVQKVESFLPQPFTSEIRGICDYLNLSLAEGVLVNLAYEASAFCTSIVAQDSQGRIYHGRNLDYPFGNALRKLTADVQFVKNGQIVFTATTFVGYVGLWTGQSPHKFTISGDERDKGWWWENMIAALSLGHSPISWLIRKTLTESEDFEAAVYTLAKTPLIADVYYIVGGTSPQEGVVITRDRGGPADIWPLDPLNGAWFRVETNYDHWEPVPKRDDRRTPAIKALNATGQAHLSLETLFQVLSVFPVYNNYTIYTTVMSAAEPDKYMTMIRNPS

[2] = target: T1, N-acylethanolamine-hydrolyzing acid amidase (Rattus norvegicus); assay: Inhibition of Wistar/ST rat lung NAAA assessed as conversion of [14C]PEA to [14C]palmitic acid at 100 uM after 20 mins
[3] = target: T2, N-acylethanolamine-hydrolyzing acid amidase (Rattus norvegicus, UniProt Q5KTC7); assay: Inhibition of Wistar/ST rat lung NAAA assessed as conversion of [14C]PEA to [14C]palmitic acid after 20 mins
T2 sequence (Q5KTC7 whole entry): T1 sequence (whole entry)

[4] = target: T3, Fatty-acid amide hydrolase 1 (Rattus norvegicus) (UniProt P97612); assay: Inhibition of Wistar/ST rat liver FAAH assessed as conversion of [14C]PEA to [14C]palmitic acid at 100 uM at pH 5 after 20 mins
T3 sequence (whole entry): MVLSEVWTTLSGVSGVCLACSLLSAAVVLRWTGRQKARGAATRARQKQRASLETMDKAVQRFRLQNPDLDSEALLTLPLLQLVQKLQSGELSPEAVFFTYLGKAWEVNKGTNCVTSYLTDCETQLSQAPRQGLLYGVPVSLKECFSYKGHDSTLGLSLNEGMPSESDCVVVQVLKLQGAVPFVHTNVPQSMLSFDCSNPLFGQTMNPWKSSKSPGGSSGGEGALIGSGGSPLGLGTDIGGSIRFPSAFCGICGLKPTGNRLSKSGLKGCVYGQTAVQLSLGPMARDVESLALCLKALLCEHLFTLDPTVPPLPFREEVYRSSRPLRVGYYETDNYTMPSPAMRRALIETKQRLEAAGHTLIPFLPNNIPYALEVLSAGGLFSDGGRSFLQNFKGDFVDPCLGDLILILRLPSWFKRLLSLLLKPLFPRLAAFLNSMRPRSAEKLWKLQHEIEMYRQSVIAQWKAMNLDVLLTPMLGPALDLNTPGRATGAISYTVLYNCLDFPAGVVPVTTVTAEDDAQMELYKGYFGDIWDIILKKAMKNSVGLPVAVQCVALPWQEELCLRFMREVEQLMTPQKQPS

[5] = target: T3, Fatty-acid amide hydrolase 1 (Rattus norvegicus); assay: Inhibition of Wistar/ST rat liver FAAH assessed as conversion of [14C]PEA to [14C]palmitic acid at 100 uM at pH 8.5 after 20 mins
[6] = target: T1, N-acylethanolamine-hydrolyzing acid amidase (Rattus norvegicus); assay: Competitive inhibition of Wistar/ST rat lung NAAA using [14C]PEA as substrate at 10 uM by Line-Weaver Burk plot analysis
[7] = target: T1, N-acylethanolamine-hydrolyzing acid amidase (Rattus norvegicus); assay: Competitive inhibition of Wistar/ST rat lung NAAA using [14C]PEA as substrate at 5 uM by Line-Weaver Burk plot analysis

Row | SMILES | Activity [1] [%] | also measured
1 | CCCCCCCCCCCCCCCC(=O)OCCCN | 48 | –
2 | CCCCCCCCCCCCN | – | inhibition [2]: Active
3 | CCCCCCCCCCCCCC(=O)OCCN | 46 | –
4 | CCCCCCCCCCCCCOC(=O)CN | 11 | IC50 [3]: 11.8 µM; inhibition [4]: 7%; inhibition [5]: inactive; inhibition [6]: Active
5 | CCCCCCCCCCCCCOC(=O)CCN | 29 | –
6 | CCCCCCCCCCCCCCOC(=O)CN | 16 | –
7 | CCCCCCCCCCCCCCCC(=O)NCC(=O)O | – | inhibition [2]: inactive
8 | CCCCCCCCCCCCOCCCN | 73 | –
9 | CCCCCCCCCCCCCCCCN | – | inhibition [2]: Active
10 | CCCCCCCCCCCCCCCN [PENTADECYLAMINE] | – | inhibition [2]: Active; IC50 [3]: 5.7 µM; inhibition [7]: Active; inhibition [4]: 25%; inhibition [5]: inactive
11 | CCCCCCCCCCCC(=O)OCCCN | 63 | –
12 | CCCCCCCCCC(=O)OCCCN | 55 | –
13 | CCCCCCCCCCCCCCCC(=O)OCCN | 50 | –
14 | CCCCC/C=C\C/C=C\C/C=C\C/C=C\CCCC(=O)NCC(=O)O | – | inhibition [2]: inactive
15 | CCCCCCCCCCCCCCOC(=O)CCN | 30 | –
16 | CCCCCCCCCC(=O)OCCN | 89 | –
17 | CCCCCCCCCCCCCCCCOC(=O)CN | 71 | –
18 | CCCCCCCCCCCC(=O)OCCN | 74 | –
19 | CCCCCCCCCCCCCCOCCN | 48 | –
20 | CCCCCCCCCCCCCC(=O)OCCCN | 46 | –
21 | CCCCCCCCCCCCCCCCOCCN | 91 | –
22 | CCCCCCCCCCCCOC(=O)CN | 34 | –
23 | CCCCCCCCCCCCCCCCOCCCN | 84 | –
24 | CCCCCCCCCCCCCCOCCCN | 71 | –
25 | CCCCCCCCCCCCCCCOC(=O)CN | 42 | –
26 | CCCCCCCCCCCCCCCNC(=O)C1CCCCC1 | – | inhibition [2]: inactive
27 | CCCCCCCCCCCCCCN | – | inhibition [2]: Active
28 | CCCCCCCCCCCCOCCN | 40 | –
29 | CCCCCCCCCCCCCCCC[N+](C)(C)C | – | inhibition [2]: Active
30 | CCCCCCCCCCCCOC(=O)CCN | 51 | –
